{
  "source": "patent US3932423A",
  "about": "“Imidazolido(1,5-c)thiazolidine-3-spiro-4-piperidines” (Yoshitomi Pharmaceutical Industries, priority 1973, dated 1976)",
  "key": {"[1]": {"system": "mice", "test": "Suppression of Spontaneous Motility", "type": "in vivo, dd-strain, male", "conditions": "Mus musculus, ip; counted for 20 minutes, 40 minutes after administration; dose for 50 percent suppression", "procedure": "The spontaneous motility of mice was counted by magnetic counter of photocell method according to P. B. Dews in \"British Gournal of Pharmacology\", vol. 8, p. 46 ff. (1953). Forty minutes after the intraperitoneal administration of the test compound, the spontaneous motility was counted for 20 minutes."}, "[2]": {"system": "mice", "test": "Suppression of Fighting Behavior", "type": "in vivo, dd-strain, female", "conditions": "Mus musculus, po, 60 minutes prior to electric foot-shock; dose to suppress 50 percent of fighting pairs", "procedure": "125, p. 28 ff. (1959). […] The ED50, the dose required to suppress 50 percent of fighting pairs, was determined graphically."}, "[3]": {"system": "mice", "test": "Reserpine Potentiation", "type": "in vivo, dd-strain, female", "conditions": "Mus musculus, po, 30 minutes before reserpine 10 mg./kg. i.p.; dose potentiating reserpine effect by 30 percent 15 minutes after reserpine; read-out: Reserpine Potentiation PD30", "procedure": "Reserpine potentiation was measured by the method described by M. D. Aceto in \"Toxicology and Applied Pharmacology,\" vol. 7, p. 329 ff. (1965). […] The degree of blepharoptosis of both eyes was observed 15, 60, 120 and 180 minutes after the administration of reserpine."}, "[4]": {"system": "mice", "test": "Antimescaline Effect", "type": "in vivo, female", "conditions": "Mus musculus, po, 60 minutes prior to mescaline sulfate 30 mg./kg. i.p.; prevention of scratching in 50 percent of animals", "procedure": "A modification of the method of R. A. Turner [Screening Method in Pharmacology, Edited by R. A. Turner, p. 73, Academic Press (1965)] was used to study the prevention of scratching episodes induced by mescaline. The test compound was given to groups each of 6 female mice orally 60 minutes prior to treatment with mescaline sulfate (30 mg./kg. of body weight, intraperitoneal)."}, "[5]": {"test": "Acute Toxicity", "design": "species or system mice, female", "conditions": "mouse, in vivo, po; lethal rate within two days", "procedure": "The test compound was orally administered to groups each of 5 female mice respectively. The LD50 was calculated from the lethal rate (50 percent) within two days after administration of the test compound."}, "[6]": {"system": "mice", "test": "Methamphetamine Group Toxicity", "conditions": "Mus musculus, po, 5 h, read-out: Methamphetamine Group Toxicity, ED50"}},
  "data": [
    {"smiles": "CN1C(=O)C2CSC3(CCN(CCCC(=O)c4ccc(F)cc4)CC3)N2C1=O", "note": "(stereo not drawn) [Compound A, 5,7-dioxo-6-methylimidazolido[1,5-c]thiazolidine-3-spiro-4'-[1'-(4-p-fluorophenyl-4-oxobutyl)piperidine]]", "values": [
      {"measurement": "ED50", "setting": "[1]", "result": 0.1, "unit": "mg/kg"},
      {"measurement": "ED50", "setting": "[2]", "result": 2.6, "unit": "mg/kg"},
      {"measurement": "ED30", "setting": "[3]", "result": 1.9, "unit": "mg/kg"},
      {"measurement": "ED50", "setting": "[4]", "result": 0.1, "unit": "mg/kg"},
      {"measurement": "LD50 at 48 h", "setting": "[5]", "result": "> 1000", "unit": "mg/kg"},
      {"measurement": "ED50", "setting": "[6]", "result": 1.1, "unit": "mg/kg"}
    ]},
    {"smiles": "NC(=O)C1(N2CCCCC2)CCN(CCCC(=O)c2ccc(F)cc2)CC1", "note": "[Floropipamide]", "values": [
      {"measurement": "ED50", "setting": "[1]", "result": 1, "unit": "mg/kg"},
      {"measurement": "ED50", "setting": "[2]", "result": 5.6, "unit": "mg/kg"},
      {"measurement": "ED30", "setting": "[3]", "result": 2.5, "unit": "mg/kg"},
      {"measurement": "ED50", "setting": "[4]", "result": 1, "unit": "mg/kg"},
      {"measurement": "LD50 at 48 h", "setting": "[5]", "result": "> 1000", "unit": "mg/kg"},
      {"measurement": "ED50", "setting": "[6]", "result": 9.2, "unit": "mg/kg"}
    ]}
  ]
}
